Experimental data from ChEMBL document CHEMBL1143963, “2D QSAR and similarity studies on cruzain inhibitors aimed at improving selectivity over cathepsin L” (Bioorg Med Chem, 2008).
pKi: −log10 of the molar value.

Target: Cruzipain (Trypanosoma cruzi, UniProt P25779)
Experiment: Inhibition of Trypanosoma cruzi cruzain

Cruzipain, sequence (P25779 whole entry): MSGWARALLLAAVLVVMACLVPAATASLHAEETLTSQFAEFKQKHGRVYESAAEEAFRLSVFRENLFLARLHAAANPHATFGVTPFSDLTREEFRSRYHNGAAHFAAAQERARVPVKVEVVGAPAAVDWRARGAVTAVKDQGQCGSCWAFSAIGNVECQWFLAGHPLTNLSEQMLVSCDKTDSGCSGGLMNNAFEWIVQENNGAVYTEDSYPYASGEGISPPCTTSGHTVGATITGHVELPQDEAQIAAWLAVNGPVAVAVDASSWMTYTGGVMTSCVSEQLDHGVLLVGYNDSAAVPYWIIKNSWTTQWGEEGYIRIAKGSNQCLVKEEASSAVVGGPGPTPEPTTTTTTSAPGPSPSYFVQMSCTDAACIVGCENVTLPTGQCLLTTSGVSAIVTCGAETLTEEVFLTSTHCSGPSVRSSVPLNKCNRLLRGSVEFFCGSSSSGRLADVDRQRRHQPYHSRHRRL

pKi	SMILES
8.36	O=C(N[C@@H](Cc1ccccc1)C(=O)N[C@@H](Cc1ccccc1)C(=O)CS)OCc1ccccc1
< 5.30	O=C(N[C@@H](Cc1ccccc1)C(=O)N[C@H](CCS)CCc1ccccc1)OCc1ccccc1
< 5.00	O=C(O)C[C@H](CCc1ccccc1)NC(=O)[C@H](Cc1ccccc1)NC(=O)OCc1ccccc1
< 5.00	O=C(N[C@@H](Cc1ccccc1)C(=O)N[C@H](CCO)CCc1ccccc1)OCc1ccccc1
6.84	O=C(N[C@@H](Cc1ccccc1)C(=O)N[C@@H](Cc1ccccc1)C(=O)CO)OCc1ccccc1
